# Assay results taken from ChEMBL document CHEMBL1135342, “Synthesis and evaluation of thymidine-5'-O-monophosphate analogues as inhibitors of Mycobacterium tuberculosis thymidylate kinase” (Bioorg Med Chem Lett, 2002).
# Target: T1, Thymidylate kinase (Mycobacterium tuberculosis, UniProt P9WKE1)
# T1 sequence (P9WKE1 whole entry): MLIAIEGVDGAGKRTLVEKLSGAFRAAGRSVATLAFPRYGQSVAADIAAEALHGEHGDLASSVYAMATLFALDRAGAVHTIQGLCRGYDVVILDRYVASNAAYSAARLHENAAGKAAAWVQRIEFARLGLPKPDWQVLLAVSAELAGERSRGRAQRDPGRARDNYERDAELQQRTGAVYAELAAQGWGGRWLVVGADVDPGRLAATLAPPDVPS
# Test: Compound was tested for binding affinity against Mycobacterium tuberculosis thymidine monophosphate kinase
row,SMILES,Ki [µM]
1,Cc1cn([C@@H]2O[C@H](COP(=O)(O)O)[C@@H](O)[C@H]2N)c(=O)[nH]c1=O,55
2,Cc1cn([C@@H]2O[C@H](COP(=O)(O)O)[C@@H](N)[C@H]2O)c(=O)[nH]c1=O,27
3,Cc1cn([C@H]2C[C@H](N)[C@@H](COP(=O)(O)O)O2)c(=O)[nH]c1=O,235
4,Cc1cn([C@@H]2O[C@H](COP(=O)(O)O)[C@@H](O)[C@H]2F)c(=O)[nH]c1=O,43
5,Cc1cn([C@@H]2O[C@H](COP(=O)(O)O)[C@@H](O)[C@H]2Cl)c(=O)[nH]c1=O,19
6,Cc1cn([C@H]2C[C@H](N=[N+]=[N-])[C@@H](COP(=O)(O)O)O2)c(=O)[nH]c1=O [AZIDOTHYMIDINE MONOPHOSPHATE],10
